# Source: patent US20260248826A1, “DRUG COMBINATION FOR TREATMENT OF PANCREATIC CANCER” (priority 2023, published 2026)
# What was measured:
# [1] = Phase 1 study of Minnelide Capsules alone or in combination with protein-bound paclitaxel in patients with Advanced Solid Tumors; type: in vivo, human
# Excerpt: Oral Minnelide. A Phase 1, Multi-Center, Open-Label, Dose-Escalation, Safety, Pharmacokinetic, and Pharmacodynamic Study of Minnelide™ Capsules given alone or in combination with protein-bound paclitaxel in patients with Advanced Solid Tumors.
# A total of 51 patients have been enrolled and dosed in the Phase 1 study, of whom […] were evaluable for safety (34 in the monotherapy regimen and 16 in the combination regimen). Twenty-nine patients have completed treatment in the monotherapy regimen, and 6 dose escalations have occurred. In the monotherapy regimen, one DLT has been observed, which occurred in the 1.25 mg cohort. […] As a result of this DLT, and out of an abundance of caution, 3 additional patients were enrolled in the 1.0 mg cohort.
# A total of 17 patients had been enrolled in combination therapy regimen. Two DLTs have been observed: one at the 0.25 mg minnelide and 125 mg/m^2 protein-bound paclitaxel dose level and one at the 0.25 mg minnelide and 100 mg/m^2 protein-bound paclitaxel dose level. […] A total of 2 SAEs occurred in this patient, neither of which were deemed related to the IP. As this was the first patient in the combination regimen to receive protein-bound paclitaxel with minnelide, the combination regimen was put on enrolment hold until further escalation parameters were introduced. The second DLT occurred in the first patient of the 0.25 mg minnelide and 100 mg/m^2 protein-bound paclitaxel cohort: a Grade 5 event of sepsis.
# [2] = system: extracellular matrix (ECM) of the pancreatic tumors; conditions: by downregulating hyaluronan synthesis and preventing collagen cross linking; cited from earlier work
# [3] = system: S2-VP10 tumor cells; assay: Orthotopic S2-VP10 pancreatic tumor model in athymic nude mice; type: in vivo
# Procedure: A preclinical study of minnelide was conducted in mice. Female athymic nude mice (NCI nu/nu; 4 to 6 weeks old) were anesthetized with xylazine/ketamine, and S2-VP10 tumor cells embedded in Matrigel were implanted into the pancreatic tail (3×10^5 cells/mouse). Twelve days after tumor implantation (Day 0), animals were randomized to receive saline, nab-paclitaxel plus gemcitabine (Gem/Abx; 250/25 mg/kg), or minnelide plus nab-paclitaxel plus gemcitabine (Minn/Gem/Abx; 0.15/250/25 mg/kg or 0.21/250/25 mg/kg) (10 animals/group). Minnelide was administered once daily (QD) by oral gavage (PO). Treatment continued until Day 28 when animals were sacrificed.
# [4] = Blood counts of patients during minnelide dosing and withholding; type: in vivo, human
# Excerpt: A drop in blood counts is usually seen within the first 5-7 days of the start of minnelide and resolves in 4-8 days of withholding of minnelide.
# CBC with differential was done on days 1, 8, 15, 22 and more frequently as clinically indicated. Patient were hospitalized for close monitoring when the ANC level was <1000 mm^3 (grade 3 or higher) or platelet was <100,000 cells/mm^3 at any time. Minnelide™ Capsules would not resume until the ANC level was ≥1500 mm^3 or platelet was ≥100,000 cells/mm^3.
# [5] = Phase 1 study of minnelide given intravenously in patients with Advanced GI Tumors; type: in vivo, human; conditions: IV
# Excerpt: Intravenous Minnelide. Phase 1, Multi-Center, Open-Label, Dose-Escalation, Safety, Pharmacokinetic, and Pharmacodynamic Study of minnelide given intravenously daily for 21 days followed by 7 days off schedule in patients with Advanced GI Tumors. A second dosing schedule of minnelide given intravenously QD for 5 days with 2 days off for three weeks followed by a 7-day rest period was also explored during this study. A total of 45 patients enrolled in the Phase 1 study, however 3 patients were not dosed with study drug. The remaining 42 patients were dosed in the study. The primary reason for the discontinuation of treatment was disease progression. There were 6 deaths in the study, but these occurred after the study drug had ended and were within the 30-day follow-up period. […] One patient who died from respiratory failure, and this was also found to be not related to use of the study drug.
# [6] = system: transforming growth factor-β (TGFβ) signaling in cancer associated fibroblasts (CAFs); conditions: dose of 0.2 mg/kg; cited from earlier work
# [7] = system: pancreatic and ovarian tumor cells; assay: In vitro antitumor activity (activated with alkaline phosphatase to release triptolide); type: cell-based
# [8] = system: pancreatic and ovarian cancer; assay: Daily administration in models of pancreatic and ovarian cancer; type: in vivo; conditions: administered daily
# [9] = system: MIA-PaCa2 and PANC-1 pancreatic cancer cell lines; conditions: after incubation with triptolide; cited from earlier work
# [10] = system: S2-013, S2-VP10 and Hs766T; conditions: metastatic lines; cited from earlier work
# [11] = system: pancreatic tumor cells and CAFs; conditions: cited from earlier work
# [12] = oral, monotherapy and combination
# [13] = Day 28, minnelide 0.15 mg/kg QD PO added to Gem/Abx 250/25 mg/kg, compared with Gem/Abx alone
# [14] = Day 28, minnelide 0.21 mg/kg QD PO added to Gem/Abx 250/25 mg/kg, compared with Gem/Abx alone
# [15] = overall, daily oral minnelide concurrently with Gem/Abx, compared with minnelide or Gem/Abx alone
structure (smiles),measurement,setting,value
"CC(C)[C@]12O[C@H]1[C@@H]1O[C@]13[C@]1(O[C@H]1C[C@H]1C4=C(CC[C@@]13C)C(=O)OC4)[C@@H]2OCOP(=O)([O-])[O-].[Na+].[Na+] [minnelide, disodium; [(1S,2S,4S,5S,7S,8R,9R,11S,13S)-1-methyl-17-oxo-7-propan-2-yl-3,6,10,16-tetraoxaheptacyclo[11.7.0.0^2,4.0^2,9.0^5.7.09^,11.0^14,18]icos-14 (18)-en-8-yl]oxymethyl phosphate]",DLTs in five additional patients,[1]; 0.25 mg minnelide and 100 mg/m^2 protein-bound paclitaxel cohort,no DLTs observed
same,DLTs observed,"[1]; 0.25 mg minnelide and 100 mg/m^2 protein-bound paclitaxel dose level, Grade 5 sepsis",one
same,DLTs observed,[1]; 0.25 mg minnelide and 125 mg/m^2 protein-bound paclitaxel dose level,one
same,DLTs observed,"[1]; combination regimen with protein-bound paclitaxel, 17 patients",Two
same,DLT observed,"[1]; oral monotherapy regimen, in the 1.25 mg cohort, Grade 5 sepsis",one
same,related SAEs by type,"[1]; oral, combination therapy with protein-bound paclitaxel",one event each of Grade 5 sepsis and Grade 2 esophagitis
same,SAEs related to the investigational product,[1]; [12],8
same,"SAEs, total",[1]; [12],45
same,patients with SAEs,[1]; [12],25
same,related SAEs by type,"[1]; oral, patients on monotherapy","1 event each of Grade 5 sepsis, Grade 4 sepsis, Grade 3 nausea, Grade 3 polymicrobial bacteraemia, Grade 3 intractable nausea, Grade 3 hypokalaemia, and Grade 2 enteritis"
same,AE incidence: Lower extremity oedema,[1]; regardless of causality,24%
same,AE incidence: abdominal distension,[1]; regardless of causality,12%
same,AE incidence: abdominal pain,[1]; regardless of causality,30%
same,AE incidence: anemia,[1]; regardless of causality,18%
same,AE incidence: back pain,[1]; regardless of causality,12%
same,AE incidence: chills,[1]; regardless of causality,12%
same,AE incidence: constipation,[1]; regardless of causality,24%
same,AE incidence: dehydration,[1]; regardless of causality,18%
same,AE incidence: dizziness,[1]; regardless of causality,12%
same,AE incidence: dyspnoea,[1]; regardless of causality,12%
same,AE incidence: fatigue,[1]; regardless of causality,18%
same,AE incidence: gastroesophageal reflux disease,[1]; regardless of causality,12%
same,AE incidence: leukopenia,[1]; regardless of causality,12%
same,AE incidence: local swelling,[1]; regardless of causality,18%
same,AE incidence: nausea,[1]; regardless of causality,24%
same,AE incidence: neutropenia,[1]; regardless of causality,30%
same,AE incidence: neutrophil count decreased,[1]; regardless of causality,13%
same,AE incidence: pain,[1]; regardless of causality,12%
same,AE incidence: pleural effusion,[1]; regardless of causality,12%
same,AE incidence: pyrexia,[1]; regardless of causality,24%
same,AE incidence: skin irritation,[1]; regardless of causality,12%
same,AE incidence: vomiting,[1]; regardless of causality,18%
same,extracellular matrix (ECM) of pancreatic tumors,[2],depleted
same,tumor volumes,[3]; [13],further reduced
same,tumor weights,[3]; [13],further reduced
same,tumor volumes,[3]; [14],further reduced
same,tumor weights,[3]; [14],further reduced
same,tumor volumes,[3]; [15],decreased
same,tumor weights,[3]; [15],decreased
same,time to drop in blood counts,[4]; from the start of minnelide,5 to 7 days
same,time to resolution of drop in blood counts,[4]; withholding of minnelide,4 to 8 days
same,"Anemia and thrombocytopenia Grade 3 and 4, drug related, patients",[5],22%
same,Serious Adverse Events related to the study drug,[5],six
same,"Serious Adverse Events, total",[5],28
same,"TEAEs leading to discontinuation probably related to study drug, considered DLTs",[5],two
same,"neutropenia grade 3 and 4 of short duration, drug related",[5],observed at all dose levels
same,patients with Serious Adverse Events,[5],17
same,patients with at least 1 AE considered related to the study drug,[5],32
same,"patients with neutropenic fever and neutropenic infection, drug related",[5],three
same,deaths in the study,"[5]; 42 patients dosed, within 30-day follow-up, not related to study drug",6
same,patients who discontinued the study drug due to TEAEs,[5]; all Grade 3,3
same,incidence of most commonly reported TEAEs regardless of causality,"[5]; hypoalbuminemia, anemia, hypoproteinemia, fatigue, neutropenia, leukopenia, thrombocytopenia, nausea, hypocalcemia, diarrhea, hyperphosphatemia, constipation, vomiting, hyponatremia, lymphopenia, abdominal pain, dehydration, hyperglycemia, peripheral edema, hypophosphatemia, headache",> 20%
same,"other possibly related side effects of any grade, patients","[5]; nausea, vomiting, diarrhea, constipation, anorexia, stomatitis, cerebellar toxicity, embolism, dyspnea",≤ 3%
same,time to resolution of neutropenia,[5]; not receiving treatment,within a couple of days
same,TGFβ signaling in CAFs,[6],disrupts
same,antitumor activity in vitro,[7],potent antitumor activity
same,animal survival,[8],markedly improved
same,tumor volumes,[8],significantly reduced
same,tumor weights,[8],significantly reduced
CC(C)[C@]12O[C@H]1[C@@H]1O[C@]13[C@]1(O[C@H]1C[C@H]1C4=C(CC[C@@]13C)C(=O)OC4)[C@@H]2O [triptolide],caspase-3 activity,[9],significantly increased
same,cytochrome c release from mitochondria into the cytosol,[9],significantly increased
same,autophagic cell death,[10],induces autophagic cell death
same,"SE-associated genes (BRD4, MYC, RNA Pol II, Collagen 1) expression","[11]; both cell types, mRNA and protein levels",downregulation
same,cytotoxicity,[11]; both pancreatic tumor cells and CAFs,cytotoxic
